Experimental data as given in patent US20220233556A1, “COMPOSITIONS AND METHODS FOR TREATING OPHTHALMIC CONDITIONS” (Medicon Pharmaceuticals, Inc., priority 2017, published 2022).
Where two headings read alike, the source gives them in different places.

How the values were obtained:
[1] = tested on: uveitis; assay: LPS-induced uveitis in rats; assay type: in vivo; settings: PS 3% once intravitreally, 48 h
Protocol: Uveitis was produced in rats by injecting LPS 75 ng into the footpad of rats. The rats were injected once intravitreally with 2 μPS 3% or vehicle. A control group included naïve rats (not LPS, no treatment). Forty-eight hours later we examined their eyes, sampled the aqueous humor and after euthanizing them we excised, fixed and stained with H&E ocular tissues following standard protocols. […] These findings document a very strong and unexpected therapeutic effect of PS against uveitis.

[2] = Rabbit ocular PK study of PS emulsion (2% PS); assay type: in vivo, New Zealand rabbits; settings: 2% PS emulsion
Protocol: A formulation includes 2% PS; 5% Propylene glycol, 10% Mineral oil, 4% Tween 60, 4% Tween 80, 10% (2-hydroxypropyl)-β-cyclodextrin (HP-β-CD). Preparation method (2 mL scale): Oil phase: weight PS into glass vial, add propylene glycol, stir at 50° C. to obtain a clear solution. Then add mineral oil, stir to obtain a clear solution. Water phase: Dissolve HP-β-CD, […] and Tween 80 into water. Add water phase into oil phase, probe-sonicate for 5 sec, 8 times, with 5 sec intervals. Resultant emulsion is filtrated through 0.22 μm filter.
Rabbit ocular pharmacokinetic (PK) study: PS was administered to New Zealand rabbits topically to the eye; as three 25 μL eye drops, 5 min apart. Rabbits were euthanized at eight specified time points between 0.25 to 16 h, ocular tissues were dissected and PS was extracted with acetonitrile and its tissue levels as well as those of its metabolites were determined by HPLC as described (Xie G. et al., Br J Pharmacol 165:2′52-2166; 2012).

[3] = tested on: ocular inflammation (cataract surgery plus LPS); assay: Ocular inflammation after cataract surgery plus LPS in rabbits; assay type: in vivo, New Zealand white rabbits; settings: PS 3.5% nanoparticles
Protocol: The anti-inflammatory effect of PS in New Zealand white rabbits was evaluated following cataract surgery and administration of the proinflammatory bacterial lipopolysaccharide (LPS). Briefly, the lens was removed by phacoemulsification and aspiration and replaced with the hydrophobic acrylic intraocular lens (AR40e, AMO). Upon completion of the operation, 1 μg of LPS dissolved in 10 μl PBS was injected into the vitreous to induce uveitis.
Rabbits were treated with PS 3.5% formulated in nanoparticles or vehicle (nanoparticles without PS) applied topically as eye drops three times per day. The first application was made within 1 h after completion of surgery. The rabbits were examined daily and the aqueous humor (AH) was sampled by needle aspiration on days 1, 3, and 5 following the injection of LPS. The number of infiltrating cells in the AH was determined following standard methods. On day 5, the rabbits were euthanized and the implanted lens was removed and fixed in 2.5% glutaraldehyde and the number of inflammatory cells attached to the lens was examined under a dissecting microscope.

[4] = Corneal levels of a PS 0.2% solution formulation after single topical application; assay type: in vivo; settings: cornea, topical or ocular, 0.2 % PS solution (single application, volume not stated), mean ± SEM
Protocol: Another embodiment of this type of formulation is: 0.1% PS, 10% HP-β-CD, 4% Tween 80, 2.5% Vitamin E TPGS, 1.4% polyvinyl alcohol (PVA) (13,000-26,000 molecular weight), 0.001% polyquad. Another embodiment of this type of formulation is: 0.2% PS; 10% HP-β-CD; 4% Tween 80; 2.5% Vitamin E TPGS; 1.4% polyvinyl alcohol (PVA) (13,000-26,000 molecular weight); and 0.001% polyquad. Preparation method: PVA was dissolved into water by stirring at 95° C. for 6 h. All ingredients including the PVA solution and PS were added into a glass vial, stirred at 50° C. (in a water bath) for 4 h, and then stirred at RT overnight. The pH was adjusted to 7.4±0.2 with NaOH and the osmolarity to 280-320 mOsm with NaCl 18%. For a sterile final product, this solution was filtered through a […] film.
The corneal levels of a PS 0.2% formulation were determined after its single topical application to the surface of the eye.

[5] = PS levels in ocular tissues after topical gellan gum-based in-situ gel; assay type: in vivo, New Zealand white rabbits; settings: New Zealand white, rabbit, gellan gum 0.5% in-situ gel, 2.4~3% PS, eye drops
Protocol: Composition: 2.4˜3% PS; 0.5% Gellan gum; 5% Vitamin E TPGS; 10% (2-hydroxypropyl)-β-cyclodextrin. Preparation Method: A Gellan gum solution was prepared by adding a certain amount of gellan gum to deionized water and heating the mixture to 90° C. with fast stirring (500 rpm). Once completely dissolved, the solution was filtered through a 0.22 μm filter. Then, PS and additional excipients were added to the system to achieve the above concentrations and stirred at 50° C. at 500 rpm for 30 minutes to allow complete dissolution.
Results: The above PS formulation was administered topically as eye drops to the eyes of New Zealand white rabbits. The levels of PS in ocular tissues at 2 h later were determined by HPLC.

[6] = PS biodistribution after topical Poloxamer 407-based in-situ gel; assay type: in vivo, New Zealand white rabbits; settings: Poloxamer 407 gel, eye drops; for concentration at 3 h: New Zealand white, rabbit, topical, 5.4 % PS in formulation
Protocol: Composition: 5.4% PS; 20% Poloxamer 407; 12% Vitamin E TPGS.
Preparation Method: Poloxamer 407 solution (thermosensitive gel solution) was prepared using a “cold method.” The required amount of Poloxamer 407 and other excipients were dissolved in cold double-distilled water at 4° C. The mixture was stirred continuously until a clear solution was obtained. Then the appropriate amount of PS was dissolved in cold PM solution with continuous stirring at room temperature until a clear solution formed.
Results: PS in this formulation was administered topically as eye drops to the eyes of New Zealand white rabbits. The biodistribution of PS in ocular tissues at 3 h and 6 h was determined by HPLC.

[7] = three 25 μL eye drops, PS and its metabolites

## CCOP(=O)(OCC)OCCCCOC(=O)CC1=C(C)/C(=C/c2ccc([S+](C)[O-])cc2)c2ccc(F)cc21 (stereo not shown) [PS, phosphosulindac]
[1]; mean±SEM, vehicle 3.3±0.2
  clinical score: 1.8±0.2
[1]; vehicle 203±39
  inflammatory cells in the tissues of the anterior chamber: 12±2.3
[1]; aqueous humor, vehicle 543±132
  number of cells: 164±31
[2]; eye drops
  PS in the retina: no PS was detected
[2]; [7]
  Cmax, aqueous humor: 0.9 μm
  Cmax, conjunctiva: 33.6 μm
  Cmax, cornea: 85.4 μm
[2]; New Zealand, rabbit, iris and ciliary body, topical or ocular, eye drops, read-out: AUC0-16 h in the iris and ciliary body
  AUC(0-t): < 4 µM·h
[3]; day 3, vehicle 24−35×10^4/ml
  number of inflammatory cells in AH: < 70000 mL⁻¹
[3]; day 5
  inflammatory cells attached to implanted lens: very few or no cells
[3]; eye drops three times per day, first 24 h
  ocular inflammation (clinical appearance): essentially eliminated
[4]
  Cmax: 63.4 ± 10 µM
[4]; read-out: AUC0-t, Cornea
  AUC(0-t): 62.6 ± 10.2 µM·h
[4]; read-out: MRT0-inf—obs, Cornea
  MRT inf: 1 ± 0.1 h
[4]; read-out: t1/2, Cornea (converted)
  half-life: 42 ± 12 min
[5]; aqueous humor, read-out: PS in Aqueous humor
  concentration at 2 h: 1.2 µM
[5]; conjunctiva, read-out: PS in Conjunctiva
  concentration at 2 h: 24.1 µM
[5]; cornea, read-out: PS in Cornea
  concentration at 2 h: 72 µM
[6]; 3 h, 5.4% PS
  PS in Aqueous humor: 0.3 µM
  PS in Conjunctiva: 5.6 µM
[6]; 6 h, 5.4% PS
  PS in Aqueous humor: 0.3 µM
  PS in Conjunctiva: 10.7 µM
  PS in Cornea: 13.6 µM
[6]; choroid, 3 h, read-out: PS in Choroid
  concentration at 3 h: 0.9 µM
[6]; cornea, 3 h, read-out: PS in Cornea
  concentration at 3 h: 45.1 µM
